Assay results as given in US20130337564A1, “Treatment of Pluripotent Cells” (Janssen Biotech, Inc., priority 2012, published 2013).

Experiments:
Assay type in all cases: cell-based
[1] = tested on: Sox17 expression in human embryonic stem cell line H9; experiment: Dose titration secondary assay: Sox17 intensity, H9
Protocol: (§1) It was important to confirm the activity of hits identified from primary screening and further analyze the range of activity by dose titration. New samples of a selective subset of primary screening hits were obtained as dry powders, solubilized to make fresh stock reagents, and diluted into secondary confirmation assays to evaluate effects on human embryonic stem cells.
(§2) Culture of two human embryonic stem cells (H1 and H9) was conducted as described in Example 1. Colonies of cells were maintained in an undifferentiated, pluripotent state on Matrigel™ ([…]) coated polystyrene plastic, using a 1:30 dilution of Matrigel™ in DMEM:F12 to coat the surface. Cells were split by enzymatic passage every four days on average. Passage was performed by exposing cell monolayers to a solution of collagenase (1 mg/ml; Sigma-Aldrich) for 10 to 60 minutes at 37° C. followed by gentle scraping with a pipette tip to recover cell clusters. Clusters were allowed to sediment by gravity, then washed to remove residual collagenase. Cell clusters were split at a 1:3 ratio for maintenance culture or a 1:1 ratio for subsequent assay. The human embryonic stem cell lines were maintained at less than passage 50 and routinely evaluated for normal karyotypic phenotype and absence of mycoplasma contamination.
(§3) Cell clusters of the H1 or H9 human embryonic stem cell lines used in the assay were evenly resuspended in culture medium and plated onto Matrigel™-coated 96-well Packard VIEWPLATES (PerkinElmer) in volumes of 100 μl/well. MEF conditioned medium supplemented with 8 ng/ml bFGF was used for initial plating and expansion. Daily feeding was conducted by aspirating spent culture medium from each well and replacing with an equal volume of fresh medium. Cultures were allowed to expand one to three days after plating prior to initiating assay. Plates were maintained at 37° C., 5% CO2 in a humidified box for the duration of assay.
(§4) A subset of hits resulting from primary screening was used for follow-up study and subsequent secondary assays. Twenty compounds available as dry powders were solubilized as 10 mM stocks in DMSO and stored dessicated at […] until use Immediately prior to assay, compound stocks were diluted 1:1000 to make 10 μM test compound in DMEM:F12 base medium (Invitrogen) supplemented with 0.5% FCS (HyClone) and 100 ng/ml Activin A (R&D Biosystems). This was further diluted two-fold in series to make a seven point dilution curve for each compound, also in DMEM:F12 base medium with 0.5% FCS and 100 ng/ml Activin A.
(§5) Assay was initiated by aspirating culture medium from cell monolayers in each well followed by three washes in PBS to remove residual growth factors and serum. Test volumes of 100 μl per well were added back containing medium with 0.5% FCS and different concentrations of inhibitor compounds with 100 ng/ml Activin A, without Wnt3a. Positive control wells contained the same base medium with 0.5% FCS and with 20 ng/ml Wnt3a (R&D Biosystems) in the absence of test compound. Negative control wells contained the same base medium with 0.5% FCS, in the absence of Activin A, Wnt3a, or test compound. Assay wells were aspirated and fed again with identical concentrations of test compound or control solutions on day 2 of assay. On days 3 and 4, all assay wells were aspirated and fed with DMEM:F12 supplemented with 2% FCS and 100 ng/ml Activin A in the absence of both test compound or Wnt3a. Parallel negative control wells were maintained on days 3 and 4 in DMEM:F12 base medium with 2% FCS.
(§6) At the end of culture, cells in 96-well plates were washed twice with PBS then fixed with 4% paraformaldehyde at room temperature for 20 minutes, washed three times more with PBS, and then permeabilized with 0.5% Triton X-100 for 20 minutes at room temperature. After fixing and permeabilizing, cells were washed again three times with PBS and then blocked with 4% chicken serum (Invitrogen) in PBS for 30 minutes at room temperature. […]

[2] = tested on: human embryonic stem cell line H9; experiment: Dose titration secondary assay: cell number, H9
Protocol: as §1, §2, §3, §4, §5, §6

[3] = tested on: Sox17 expression in human embryonic stem cell line H1; experiment: Dose titration secondary assay: Sox17 intensity, H1
Protocol: as §1, §2, §3, §4, §5, §6

[4] = tested on: human embryonic stem cell line H1; experiment: Dose titration secondary assay: cell number, H1; conditions: positive control (Wnt3a/Activin A) normalized to 1.000
Protocol: as §1, §2, §3, §4, §5, §6

Row | Compound | Sox17 Intensity ([1]; 0.156 μM compound) | Sox17 Intensity ([1]; 0.313 μM compound) | Sox17 Intensity ([1]; 0.625 μM compound) | Sox17 Intensity ([1]; 1.25 μM compound) | Sox17 Intensity ([1]; 2.5 μM compound) | Sox17 Intensity ([1]; 5 μM compound) | Sox17 Intensity ([1]; 10 μM compound) | Cell number ([2]; 0.156 μM compound) | Cell number ([2]; 0.313 μM compound) | Cell number ([2]; 0.625 μM compound) | Cell number ([2]; 1.25 μM compound) | Cell number ([2]; 2.5 μM compound) | Cell number ([2]; 5 μM compound) | Cell number ([2]; 10 μM compound) | Sox17 Intensity ([3]; 0.156 μM compound) | Sox17 Intensity ([3]; 0.313 μM compound) | Sox17 Intensity ([3]; 0.625 μM compound) | Sox17 Intensity ([3]; 1.25 μM compound) | Sox17 Intensity ([3]; 2.5 μM compound) | Sox17 Intensity ([3]; 5 μM compound) | further results
1 | CCN1CCOCCOCCn2cc(c3ccccc32)C2=C(C(=O)NC2=O)c2cn(c3ccccc23)CC1 [Compound 103, 14-Ethyl-6,7,9,10,13,14,15,16-octahydro-12H,23H-5,26:17,22-di(metheno)dibenzo[k,q]pyrrolo[3,4-n][1,4,7,10,19]dioxatriacyclohenicosine-23,25(24H)-dione] | 0.364 | 0.577 | 0.985 | 0.943 | 0.559 | 0.019 | 0.001 | 0.458 | 0.686 | 0.927 | 1.011 | 0.681 | 0.023 | 0.001 | 0.986 | 0.934 | 0.824 | 0.792 | 0.200 | 0.017 | Sox17 Intensity ([3]; 10 μM compound): 0.001; Cell number ([4]; Conc 0.156 μM): 1.027; Cell number ([4]; Conc 0.313 μM): 1.028; Cell number ([4]; Conc 0.625 μM): 0.921; Cell number ([4]; Conc 1.25 μM): 0.897; Cell number ([4]; Conc 2.5 μM): 0.566; Cell number ([4]; Conc 5 μM): 0.034; Cell number ([4]; Conc 10 μM): 0.001
2 | CN1CCN(C)CCn2cc(c3ccccc32)C2=C(C(=O)NC2=O)c2cn(c3ccccc23)CC1 [Compound 111, 8,11-Dimethyl-6,7,8,9,10,11,12,13-octahydro-20H-5,23:14,19-di(metheno)dibenzo[k,q]pyrrolo[3,4-n][1,4,7,10]tetraazacyclooctadecine-20,22(21H)-dione] | 0.054 | 0.080 | 0.268 | 0.332 | 0.432 | 0.543 | 0.822 | 0.072 | 0.100 | 0.371 | 0.442 | 0.600 | 0.793 | 1.117 | 0.628 | 0.667 | 0.755 | 0.819 | 0.887 | 0.846 | Sox17 Intensity ([3]; 10 μM compound): 0.330; Cell number ([4]; Conc 0.156 μM): 0.659; Cell number ([4]; Conc 0.313 μM): 0.785; Cell number ([4]; Conc 0.625 μM): 0.801; Cell number ([4]; Conc 1.25 μM): 0.914; Cell number ([4]; Conc 2.5 μM): 1.031; Cell number ([4]; Conc 5 μM): 1.128; Cell number ([4]; Conc 10 μM): 0.412
3 | CN1CCOCCOCCN(C)CCn2cc(c3ccccc32)C2=C(C(=O)NC2=O)c2cn(c3ccccc23)CC1 [Compound 112, 12,21-Dimethyl-11,12,13,14,16,17,20,21,22,23-decahydro-1H,10H,19H-9,4:24,29-di(metheno)dibenzo[k,q]pyrrolo[3,4-n][1,4,7,10,19,22]dioxatetraazacyclotetracosine-1,3(2H)-dione] | 0.186 | 0.342 | 0.563 | 0.936 | 1.146 | 1.127 | 0.759 | 0.276 | 0.437 | 0.686 | 1.039 | 1.197 | 1.281 | 1.022 | 0.922 | 1.006 | 1.136 | 1.159 | 0.928 | 0.728 | Sox17 Intensity ([3]; 10 μM compound): 0.701; Cell number ([4]; Conc 0.156 μM): 0.912; Cell number ([4]; Conc 0.313 μM): 0.959; Cell number ([4]; Conc 0.625 μM): 1.111; Cell number ([4]; Conc 1.25 μM): 1.200; Cell number ([4]; Conc 2.5 μM): 1.005; Cell number ([4]; Conc 5 μM): 0.908; Cell number ([4]; Conc 10 μM): 0.996
4 | O=C1NC(=O)C2=C1c1cn(c3ccccc13)CCOCCOCCN(Cc1cccs1)CCn1cc2c2ccccc21 [Compound 133, 14-(2-Thienylmethyl)-6,7,9,10,13,14,15,16-octahydro-12H,23H-5,26:17,22-di(metheno)dibenzo[k,q]pyrrolo[3,4-n][1,4,7,10,19]dioxatriazacyclohenicosine-23,25(24H)-dione] | 0.149 | 0.398 | 0.678 | 1.110 | 0.857 | 0.194 | 0.129 | 0.206 | 0.540 | 0.899 | 1.477 | 1.368 | 1.067 | 0.785 | 0.888 | 0.937 | 1.061 | 0.993 | 0.497 | 0.071 | Sox17 Intensity ([3]; 10 μM compound): 0.034; Cell number ([4]; Conc 0.156 μM): 0.890; Cell number ([4]; Conc 0.313 μM): 0.888; Cell number ([4]; Conc 0.625 μM): 1.106; Cell number ([4]; Conc 1.25 μM): 1.124; Cell number ([4]; Conc 2.5 μM): 0.592; Cell number ([4]; Conc 5 μM): 0.262; Cell number ([4]; Conc 10 μM): 0.096
5 | O=C1NC(=O)C2=C1Nc1cccc(c1)OCCC/C=C\CCCOc1cccc2c1 [Compound 233, (11Z)-8,9,10,13,14,15-Hexahydro-2,6:17,21-di(metheno)pyrrolo[3,4-h][1,15,7]dioxazacyclotricosine-22,24(1H,23H)-dione] |  |  |  |  |  |  |  |  |  |  |  |  |  |  |  |  |  |  |  |  | activity at 0.156 µM ([4]; Homo sapiens, Embryonic stem cell, Conc 0.156 μM): 83.2%; activity at 0.313 µM ([4]; Homo sapiens, Embryonic stem cell, Conc 0.313 μM): 79.1%; activity at 0.625 µM ([4]; Homo sapiens, Embryonic stem cell, Conc 0.625 μM): 73.6%; activity at 1.25 µM ([4]; Homo sapiens, Embryonic stem cell, Conc 1.25 μM): 63.6%; activity at 2.5 µM ([4]; Homo sapiens, Embryonic stem cell, Conc 2.5 μM): 43.8%; activity at 5 µM ([4]; Homo sapiens, Embryonic stem cell, Conc 5 μM): 8.9%; activity at 10 µM ([4]; Homo sapiens, Embryonic stem cell, Conc 10 μM): 0%
